Data from patent US7094789B2, “5-substituted isoquinoline derivatives” (Asahi Kasei Pharma Corporation, priority 2002, dated 2006).

Key:
[1] = tested on: phosphorylated myosin regulatory light chain; assay: Action on amount of phosphorylated myosin regulatory light chain in the cells (Test Example 1); assay type: cell-based; conditions: Homo sapiens, Neutrophil, 5 min, human neutrophils; reaction with test compound at 25° C. for 5 minutes; read-out: Inhibition of myosin regulatory light chain phosphorylation (IC50: μM)
Method: A volume of 50 to 100 ml of peripheral blood collected from healthy volunteers was centrifuged by using Mono-Poly separator solution (Dainippon Pharmaceutical) to prepare a neutrophil containing fraction. The neutrophils were washed with PBS(−) and resuspended in Hanks' Balanced Salt Solution (HBSS+, Gibco) to prepare a cell suspension (8×10^6/ml). The cell suspension was diluted to 5×10^6/ml, introduced into Eppendorf tubes in a volume of 0.4 ml each, then 0.1 ml each of solutions of a test compound at various concentrations were added to the suspension and allowed to react at 25° C. for 5 minutes. […]
The gel after the electrophoresis was blotted on a nitrocellulose membrane (BioRad), blocked with 5% skim milk, and reacted successively with antibodies pLC1 (Sakurada K. et al, Am. J. Physiol., 274, C1563–C1572 (1998)), which specifically recognize the phosphorylated myosin regulatory light chain, and donkey anti-mouse IgG (Chemicon) conjugated with horseradish peroxidase (HRP-labeled). The band of the phosphorylated myosin regulatory light chain was detected on a film by using ECL Plus Kit (Amersham Pharmacia Biotech). This band was subjected to quantification using a densitometer. By using this value, the inhibitory ratio (%) for phosphorylation of the myosin regulatory light chain was calculated by using the following equation. […]

[2] = tested on: thoracic aorta constricted with phenylephrine; assay: Vasoconstriction inhibitory action (Test Example 2); design: species or system Rats (Wistar); conditions: test compound 1 μM; aorta constricted with phenylephrine 1 μM
Excerpt: Rats (Wistar, 11-week old) were bleeded to death and laparotomized to take out the thoracic aorta. That aorta was cut into a ring of a length of about 3 mm in a conventional manner (Asano, T., et al., J. Pharmacol. Exp. Ther., 241, pp. 1033–1040 (1987)) and hung in 10-ml organ bath filled with Krebs-Hensright nutrient solution bubbled with a mixed gas of 95% O2 and 5% CO2. One end of the blood vessel was connected to an isometric transducer (FD Pickup TB-912T, Nihon Kohden) and applied with 2.5 g of resting tension, and constriction and relaxation reactions of the aorta were recorded. The aorta was constricted with phenylephrine (1 μM, Sigma) and then added with a test compound (1 μM), and the vasoconstriction inhibitory action thereof was observed. The vasoconstriction inhibitory actions of the test compounds are shown in Table 6 mentioned below as the relaxation ratios, which are based on the vasoconstriction with phenylephrine immediately before the addition of the test compound taken as 100%.

[3] = tested on: neutrophils; assay: Neutrophil migration inhibitory action (Test Example 5); assay type: cell-based; conditions: Homo sapiens, 0.5 h, FMLP 1 μM, Boyden Chamber, 37° C., 30 minutes, read-out: Neutrophil migration inhibition IC50
Method: Neutrophils were isolated from 50 to 100 ml of peripheral blood collected from healthy donors by the method described in Test Example 1 to obtain a cell suspension (8×10^6/ml). Subsequently, solutions of a test compound at various concentrations were introduced into wells of a 96-well plate in a volume of 125 μl per well, the cell suspension of an equivalent volume was added to it and the plate was preincubated at room temperature for 5 minutes. During the preincubation, FMLP (1 μM, Sigma) solution was added to the lower chamber to set Boyden Chamber, the preincubated cell suspension was added to the upper chamber in a volume of 200 μl per well, and the cells were allowed to migrate at 37° C. under 5% carbon dioxide for 30 minutes. The filter after the migration was collected, and the non-migrated cells adhered to the surface that faced the upper chamber were carefully wiped off. Then, the migrated cells on the back surface were stained with DifQuick dye solution (International Reagents), washed with water and dried, and then absorbance was measured at 595 nm. The inhibition ratio against migration (%) of a test compound was calculated by using the following equation: Migration inhibition ratio (%)=(1−Absorbance of the group with addition of test compound/Absorbance of the group without addition of test compound)×100 […]

Question: Which IC50 [1] does the source give for `CC1CNCCN1S(=O)(=O)c1cccc2cnccc12` (stereo not drawn) [Example H-7, 1-(5-Isoquinolinesulfonyl)-2-methylpiperazine] here?
Answer: 80 µM

Question: And the “Vasoconstriction inhibitory action (relaxation ratio) (%)” value [2]?
Answer: 22.0%

Question: What about the IC50 [3] of the same compound?
Answer: > 40 µM
